Source: ChEMBL document CHEMBL1123591, “Synthetic analogues of tetrahydrobiopterin with cofactor activity for aromatic amino acid hydroxylases” (1987)

Each compound was assayed on dihydropteridine reductase (assay: Tested in isolated enzyme assay for its cofactor actidihydropteridine reductaseity against dihydropteridine reductase expressed as relatidihydropteridine reductasee dihydropteridine reductaseelocity).
In the case of `CCCCOCC1CNc2nc(N)nc(O)c2N1.Cl.Cl` (centres undefined), the Relative velocity is reported as 283%.

These compounds were tested on dihydropteridine reductase (assay: Tested in isolated enzyme assay for its cofactor activity against dihydropteridine reductase expressed as relative velocity).
In the case of `CC(O)C(O)C1CNc2nc(N)nc(O)c2N1.Cl.Cl` (centres undefined), the Relative velocity is reported as 100%. In the case of `CCOCC1CNc2nc(N)nc(O)c2N1.Cl.Cl` (centres undefined), the Relative velocity is reported as 419%. For `CC1(C)CNc2nc(N)nc(O)c2N1`, the Relative velocity was 239%. `CCCOCC1CNc2nc(N)nc(O)c2N1.Cl.Cl` (centres undefined) was tested, and the Relative velocity was 212%. With `CC(C)OCC1CNc2nc(N)nc(O)c2N1.Cl.Cl` (centres undefined) the Relative velocity was 277%. Compound `COCC1CNc2nc(N)nc(O)c2N1.Cl.Cl` (centres undefined) has a Relative velocity of 421%. Work on `CC(C)(C)OCC1CNc2nc(N)nc(O)c2N1.Cl.Cl` (centres undefined) yielded a Relative velocity of 222%. Compound `CC1CNc2nc(N)[nH]c(=O)c2N1.Cl.Cl` (centres undefined) has a Relative velocity of 216%.
